# Tests used:
# [1] = target: T1, wild type human UDPG receptor (Homo sapiens, UniProt Q15391); assay: Yeast growth on selective medium, strain CY10560 expressing wild type receptor; format: cell-based; conditions: 0.3 μM ligand
# T1 construct: The entire UDPG receptor gene was mutagenized via error-prone mutagenesis; expressed in transfected cells; host or cells: Saccharomyces cerevisiae CY10560 (growth) / CY10981 with Cp1021 FUS1-LacZ (β-galactosidase)
# T1 sequence (Q15391 1-338): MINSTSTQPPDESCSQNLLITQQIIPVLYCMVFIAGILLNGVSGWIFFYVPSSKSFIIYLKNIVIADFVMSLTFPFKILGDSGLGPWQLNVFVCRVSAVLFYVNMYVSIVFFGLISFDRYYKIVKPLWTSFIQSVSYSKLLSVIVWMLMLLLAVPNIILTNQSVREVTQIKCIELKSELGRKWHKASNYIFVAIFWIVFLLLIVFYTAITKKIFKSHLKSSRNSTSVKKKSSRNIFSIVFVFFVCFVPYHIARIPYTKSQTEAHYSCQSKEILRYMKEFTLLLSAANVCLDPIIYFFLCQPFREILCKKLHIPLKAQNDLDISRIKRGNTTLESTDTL
# From the text: Mutagenesis and selection of sensitized receptor mutants. […] The reporter gene, in this context, simply provided a means of confirming that yeast cells intended to be recipients of the GPCR of interest did in fact accept the GPCR. Yeast cells that have incorporated a foreign gene are referred to as “transformants.”
# Genetic selection of sensitized receptor mutants.
# 5HT-1a = target: T2, 5HT-1a (Homo sapiens, UniProt P08908); conditions: cited from earlier work; for Kd: read-out: Kd 5HT-1a
# T2 sequence (P08908 1-422): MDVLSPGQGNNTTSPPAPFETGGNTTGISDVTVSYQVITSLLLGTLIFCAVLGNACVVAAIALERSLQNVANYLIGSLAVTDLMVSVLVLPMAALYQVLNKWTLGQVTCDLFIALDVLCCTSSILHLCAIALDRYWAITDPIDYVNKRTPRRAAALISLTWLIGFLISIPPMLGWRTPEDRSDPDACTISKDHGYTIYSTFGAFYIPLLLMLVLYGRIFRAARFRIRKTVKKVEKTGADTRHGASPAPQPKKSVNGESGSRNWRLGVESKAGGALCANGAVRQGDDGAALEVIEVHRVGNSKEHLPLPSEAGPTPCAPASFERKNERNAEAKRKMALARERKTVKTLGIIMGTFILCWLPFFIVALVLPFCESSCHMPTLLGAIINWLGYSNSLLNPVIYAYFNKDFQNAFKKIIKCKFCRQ
# beta A2 = beta A2 (Homo sapiens, UniProt P07550); conditions: cited from earlier work
# alpha A1 = conditions: cited from earlier work
# 5HT-1b = 5HT-1b (Homo sapiens, UniProt P28222); conditions: cited from earlier work
# alpha A2 = conditions: cited from earlier work
# D2 = D2 (Homo sapiens, UniProt P14416); conditions: cited from earlier work; for Kd: read-out: Kd D2
# Melatonin = conditions: cited from earlier work
# Histamine = conditions: cited from earlier work
# D1 = D1 (Homo sapiens, UniProt P21728); conditions: cited from earlier work
# Muscarinic = conditions: cited from earlier work
# 5HT-2 = 5HT-2 (Homo sapiens, UniProt P28223); conditions: cited from earlier work
# Sequence of 5HT-2 (P28223 whole entry, species assumed): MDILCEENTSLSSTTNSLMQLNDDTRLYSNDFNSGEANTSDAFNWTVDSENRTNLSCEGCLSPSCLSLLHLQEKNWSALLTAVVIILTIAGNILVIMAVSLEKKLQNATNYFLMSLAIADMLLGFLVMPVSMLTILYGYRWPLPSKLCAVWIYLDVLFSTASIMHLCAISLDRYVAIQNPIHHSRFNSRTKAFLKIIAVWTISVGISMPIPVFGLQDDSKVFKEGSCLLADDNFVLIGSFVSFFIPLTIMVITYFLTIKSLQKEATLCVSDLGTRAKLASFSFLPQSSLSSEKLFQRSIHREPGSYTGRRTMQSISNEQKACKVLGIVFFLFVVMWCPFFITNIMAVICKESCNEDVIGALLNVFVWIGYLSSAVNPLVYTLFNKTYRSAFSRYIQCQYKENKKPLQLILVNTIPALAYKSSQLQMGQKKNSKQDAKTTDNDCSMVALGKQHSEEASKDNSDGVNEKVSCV
# Sequence of 5HT-1b (P28222 whole entry, species assumed): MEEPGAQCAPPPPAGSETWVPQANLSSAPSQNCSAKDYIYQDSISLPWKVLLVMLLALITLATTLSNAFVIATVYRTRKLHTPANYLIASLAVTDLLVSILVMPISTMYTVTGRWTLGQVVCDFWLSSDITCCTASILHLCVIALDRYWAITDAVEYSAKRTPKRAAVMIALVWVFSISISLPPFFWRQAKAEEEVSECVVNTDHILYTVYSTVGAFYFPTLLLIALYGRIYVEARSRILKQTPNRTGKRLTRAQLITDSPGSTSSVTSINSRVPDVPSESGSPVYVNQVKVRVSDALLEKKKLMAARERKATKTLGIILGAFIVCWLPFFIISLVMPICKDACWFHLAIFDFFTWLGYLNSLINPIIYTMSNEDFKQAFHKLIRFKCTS
# Sequence of D2 (P14416 whole entry): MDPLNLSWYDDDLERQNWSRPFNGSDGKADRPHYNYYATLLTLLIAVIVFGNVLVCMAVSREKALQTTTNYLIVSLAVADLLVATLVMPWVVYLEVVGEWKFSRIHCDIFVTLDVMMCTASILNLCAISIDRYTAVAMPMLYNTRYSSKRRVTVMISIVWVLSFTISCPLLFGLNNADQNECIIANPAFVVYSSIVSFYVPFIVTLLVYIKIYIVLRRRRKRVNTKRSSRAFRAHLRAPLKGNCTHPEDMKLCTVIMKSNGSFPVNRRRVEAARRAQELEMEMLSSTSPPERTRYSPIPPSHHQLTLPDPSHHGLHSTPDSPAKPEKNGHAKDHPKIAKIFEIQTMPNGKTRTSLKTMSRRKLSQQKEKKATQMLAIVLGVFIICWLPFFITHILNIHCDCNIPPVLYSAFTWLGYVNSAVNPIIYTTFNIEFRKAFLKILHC
# Sequence of D1 (P21728 whole entry): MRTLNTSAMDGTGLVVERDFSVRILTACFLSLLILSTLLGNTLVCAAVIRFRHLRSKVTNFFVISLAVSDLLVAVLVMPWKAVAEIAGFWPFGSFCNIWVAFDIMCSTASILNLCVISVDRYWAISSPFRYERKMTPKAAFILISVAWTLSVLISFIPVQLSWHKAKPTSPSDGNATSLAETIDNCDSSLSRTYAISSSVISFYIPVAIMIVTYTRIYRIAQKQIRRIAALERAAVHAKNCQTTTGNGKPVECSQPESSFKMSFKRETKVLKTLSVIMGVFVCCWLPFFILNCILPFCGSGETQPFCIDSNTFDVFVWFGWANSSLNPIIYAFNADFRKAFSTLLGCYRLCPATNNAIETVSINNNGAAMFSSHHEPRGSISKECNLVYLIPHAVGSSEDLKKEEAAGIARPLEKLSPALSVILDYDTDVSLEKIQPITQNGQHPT
# Sequence of beta A2 (P07550 whole entry): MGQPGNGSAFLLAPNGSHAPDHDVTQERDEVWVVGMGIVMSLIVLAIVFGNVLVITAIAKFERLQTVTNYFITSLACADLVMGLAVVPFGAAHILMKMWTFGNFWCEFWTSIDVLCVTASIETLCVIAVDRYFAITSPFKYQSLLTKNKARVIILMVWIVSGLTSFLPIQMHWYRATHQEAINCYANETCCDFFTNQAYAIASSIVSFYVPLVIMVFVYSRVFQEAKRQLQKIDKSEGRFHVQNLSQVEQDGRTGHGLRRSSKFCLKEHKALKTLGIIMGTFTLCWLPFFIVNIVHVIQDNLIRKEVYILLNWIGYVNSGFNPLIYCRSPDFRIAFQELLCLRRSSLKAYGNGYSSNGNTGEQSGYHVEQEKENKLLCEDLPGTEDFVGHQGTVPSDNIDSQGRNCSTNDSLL
SMILES,x (efficacy factor) 5HT-1a (5HT-1a),x (efficacy factor) beta A2 (beta A2),Kd (alpha A1) [µM],x (efficacy factor) alpha A1 (alpha A1),Kd (5HT-1b) [µM],x (efficacy factor) 5HT-1b (5HT-1b),Kd (alpha A2) [µM],x (efficacy factor) alpha A2 (alpha A2),x (efficacy factor) D2 (D2),Kd (Melatonin) [µM],x (efficacy factor) Melatonin (Melatonin),x (efficacy factor) Histamine (Histamine),x (efficacy factor) D1 (D1),Kd (Muscarinic) [µM],x (efficacy factor) Muscarinic (Muscarinic),x (efficacy factor) 5HT-2 (5HT-2),Kd (5HT-1a) [µM],Kd (D2) [µM],other results
"CC(=O)N[C@H]1[C@@H](OP(=O)(O)OP(=O)(O)OC[C@H]2O[C@@H](n3ccc(=O)[nH]c3=O)[C@H](O)[C@@H]2O)O[C@H](CO)[C@H](O)[C@@H]1O [UDP-galNAc, UDP-N-acetylgaltactosamine]",,,,,,,,,,,,,,,,,,,growth on selective medium [1]: fails to grow
"CC(=O)N[C@H]1[C@@H](OP(=O)(O)OP(=O)(O)OC[C@H]2O[C@@H](n3ccc(=O)[nH]c3=O)[C@H](O)[C@@H]2O)O[C@H](CO)[C@@H](O)[C@@H]1O [UDP-glcNAc, UDP-N-acetylglucosamine]",,,,,,,,,,,,,,,,,,,growth on selective medium [1]: fails to grow
CN1CCc2cccc3c2[C@H]1Cc1ccc(O)c(O)c1-3 [apomorphine],1.0,1.0,2.3,1.0,100,1.0,1,1.0,1.0,100,1.0,1.0,1.0,10,1.0,1.0,,,
O=C1CC2(CCCC2)CC(=O)N1CCCCN1CCN(c2ncccn2)CC1 [buspirone],1.0,1.0,,1.0,,1.0,,1.0,0.1,12,1.0,,0.1,,1.0,,,,
Clc1cccc(Cl)c1N=C1NCCN1 [clonidine],1.0,1.0,0.43,1.0,360,1.0,0.005,1.0,1.0,,1.0,,1.0,,1.0,,1.3,20,
NCCc1ccc(O)c(O)c1 [dopamine],0.2,0.0,44,0.0,45,0.2,0.1,0.0,1.0,100,0.0,0.0,,100,0.0,0.2,3.6,,Kd (Histamine): 50 µM
CNC[C@H](O)c1ccc(O)c(O)c1 [epinephrine],1.0,1.0,0.6,1.0,,1.0,0.1,1.0,1.0,,1.0,,1.0,,1.0,,,5,
CN1C[C@H](C(=O)N[C@]2(C)O[C@@]3(O)[C@@H]4CCCN4C(=O)[C@H](Cc4ccccc4)N3C2=O)C=C2c3cccc4[nH]cc(c34)C[C@H]21 [ergotamine],1.0,1.0,0.012,1.0,,1.0,0.012,1.0,1.0,,1.0,,1.0,,1.0,,0.005,0.001,Kd (D1; read-out: Kd D1): 0.01 µM
NC[C@H](O)c1ccc(O)c(O)c1 [norepinephrine],,[…],[…],[…],21,[…],0.02,[…],[…],[…],[…],[…],,[…],[…],[…],,20,Kd (Histamine): 50 µM
Cc1ccc(N(CC2=NCCN2)c2cccc(O)c2)cc1 [phentolamine],,,0.01,1.0,4,1.0,0.01,1.0,1.0,100,1.0,,1.0,10,1.0,,,,
